Converted amounts (≈) assume the structure as drawn.
Assays:
[1] = target: FAS prepared from Saccharomyces cerevisiae (Saccharomyces cerevisiae, UniProt P07149+P19097); settings: Li et al. (2002), cited from earlier work
[2] = system: A549 lung carcinoma cells; experiment: In-vitro anti-proliferative property on cultured A549 cells (MTT assay); assay type: cell-based; settings: for IC50 / viability at 6.25 µg/mL / viability at 12.5 µg/mL / viability at 25 µg/mL / viability at 50 µg/mL / viability at 100 µg/mL: Homo sapiens; for IC50: A549, 24 h, read-out: IC50 anti-proliferative activity against A549 cells; for IC50 / IC50 anti-proliferative activity against A549 cells: MTT; for viability at 6.25 µg/mL / viability at 12.5 µg/mL / viability at 25 µg/mL / viability at 50 µg/mL / viability at 100 µg/mL / IC50 anti-proliferative activity against A549 cells / Percentage Viability: 24 hours; for viability at 6.25 µg/mL / viability at 12.5 µg/mL / viability at 25 µg/mL / viability at 50 µg/mL / viability at 100 µg/mL: read-out: Percentage Viability
Description: A549 lung carcinoma cells were maintained in Dulbecco's modified eagles media (Himedia, India) supplemented with 10% FBS (Invitrogen, India) and grown to confluence at 37° C. and 5% CO2 in a humidified atmosphere using a CO2 incubator (NBS, Eppendorf, Germany). The cells were trypsinized (500 μL of 0.025% trypsin in PBS/0.5 mM EDTA solution (Himedia, India) for 2 minutes and transferred to T flasks under aseptic condition. Test compounds were added to grown cells with a final concentration of 6.25, 12.5, 25, 50, 100 μg/mL from a stock of 1 mg/mL and incubated for 24 hours. The % difference in viability was determined by standard MTT assay (Arung et al. 2000) after 24 hours of incubation. Viability percentage was calculated using the Formula, % viability=(OD of Test/OD of Control)×100

[3] = system: Bacterial FAS II enzyme; experiment: FAS II assay (NADPH oxidation at 340 nm); assay type: biochemical, Bacillus subtilis; settings: for Average ΔC (change in concentration of NADPH): control 0.05037
Description: Crude FAS containing protein fraction was isolated according to the modified protocol of Ahmad et al. (1981). Stock culture of Bacillus subtilis was inoculated in 100 mL LB broth pH 7.2 and cultured for 24 hours at room temperature. It was used for further inoculation of four 1000 mL flasks with same media and culture conditions. The flasks were placed in a rotator shaker to ensure adequate suspension of cells. Bacteria were harvested during the late-exponential phase of growth by centrifugation at 10000×g for 10 minutes and washed twice with 50 mM sodium phosphate buffer (pH 7.0) to provide cell pastes which were stored at -20° C. until use. Frozen cell pastes (25-35 g) were thawed and suspended in 50 mM sodium phosphate buffer (pH 7.0). The cell suspension was disrupted by sonication (12 W, 6×15 pulses with 15 second intervals) in 2 mL Eppendorf tubes containing 1.5 mL of cell suspension, supplemented with lysozyme (250 μg/mL) in a sonicator, operating at maximum power output while maintaining the temperature below 4° C. Unbroken cells and cell debris were removed by centrifugation at 30000×g for 30 minutes at 4° C. The […] were re-suspended in 50 mM sodium phosphate buffer (pH 7.0) and made up to appropriate volume and subjected to ammonium sulphate precipitation. Solid ammonium sulphate was added and the protein precipitate at 40-60% saturation was collected by centrifugation, dialyzed and used for further assay. FAS assay for FAS I enzyme was performed according to a modified process of Li et al. 2002. Crude protein was made up to a concentration of 0.5 mg/mL of protein and used for the assay. Assay was carried out in 96 well plates with the final working volume of 100 μL. […] The microplate was read immediately for 10 minutes at 340 nm. FAS activity was calculated by subtracting the optical density (OD) value obtained after 1 minute from the OD value obtained after 10 minutes. FAS activity was calculated and compared with that of control and test compounds. Dimethyl sulfoxide (DMSO) was taken as control as it was used to dilute the compounds. […] The negative control consisted of protein plus reaction buffer. Another control consisted of buffer reaction without protein. The IC50 was determined by linear regression. FAS activity was determined by the rate of oxidation of NADPH to NADP which was monitored at 340 nm. The change in concentration of NADPH during oxidation was calculated using the following equation: ΔC=ΔA/E Where, ΔC was change in the concentration of NADPH, ΔA was change in absorbance, and E was extinction coefficient of NADPH ([…] nm=6.22 mM^-1·cm^-1). FAS activity was expressed as n mol NADPH oxidized/min/mg protein. Assay using partially purified enzyme from Bacillus subtilis was also performed to verify the FAS II inhibitory activity of compound of Formula II. […] The graph was plotted with change in concentration of NADP to NADPH against time. Each point in graph was the concentration of NADPH measured on a spectrophotometer at 340 nm (FIGS. 6 and 7 for FAS II and FAS I respectively).

[4] = system: FAS I enzyme from bovine liver; experiment: FAS I assay (NADPH oxidation at 340 nm); assay type: biochemical, Indian water buffalo; settings: for Average ΔC (change in concentration of NADPH): control 0.051383
Description: Crude preparation of FAS I enzyme was made according to modified protocol of Dulter et al. (1971). Liver from freshly slaughtered Indian water buffalo was collected and transported in ice bucket and kept at 4° C. till processing. The liver was processed at the earliest by removing connective tissues and sliced into small pieces. Using a blender, about 750 g of liver was minced to form a suspension with 0.05 M potassium phosphate buffer pH 7.4 containing 1 mM EDTA to make up to a volume of 2.5 liters. The thick solution was centrifuged at 7500×g for 20 minutes to remove meat debris and the supernatant obtained was further centrifuged at 30000×g for 30 minutes to get a translucent solution. The supernatant was further diluted to specific volume using 0.05 M Potassium phosphate buffer (pH 7.4) with 1 mM EDTA and brought initially to 10% and then to 40% saturation with solid ammonium sulfate at 4° C. The 40% ammonium sulfate fraction was centrifuged and protein precipitate was re-dissolved in 0.05 mM Tris HCl buffer, pH 7.4, dialyzed against same buffer. The FAS I enzyme was further purified by ion exchange chromatography with Diethylaminoethyl (DEAE) cellulose column as described above (Dulter et al. 1971).
FAS assay for FAS I enzyme was performed according to a modified process of Li et al. 2002. Crude protein was made up to a concentration of 0.5 mg/mL of protein and used for the assay. Assay was carried out in 96 well plates with the final working volume of 100 μL. Compounds to be tested were incubated with previously made crude protein extract for 30 minutes at 25° C. 50 μL of this mixture was added to 50 of reaction mixture containing 1 mM each of malonyl CoA and Nicotinamide adenine dinucleotide phosphate (NADPH), 40 μM acetyl CoA, and 2 mM Dithiothreitol (DTT) in phosphate buffer (250 mM).
The microplate was read immediately for 10 minutes at 340 nm. FAS activity was calculated by subtracting the optical density (OD) value obtained after 1 minute from the OD value obtained after 10 minutes. FAS activity was calculated and compared with that of control and test compounds. Dimethyl sulfoxide (DMSO) was taken as control as it was used to dilute the compounds. […] The negative control consisted of protein plus reaction buffer. Another control consisted of buffer reaction without protein. The IC50 was determined by linear regression. FAS activity was determined by the rate of oxidation of NADPH to NADP which was monitored at 340 nm. The change in concentration of NADPH during oxidation was calculated using the following equation: ΔC=ΔA/E
Where, ΔC was change in the concentration of NADPH, ΔA was change in absorbance, and E was extinction coefficient of NADPH (E340 nm=6.22 mM^−1·cm^−1). FAS activity was expressed as n mol NADPH oxidized/min/mg protein.

[5] = In-vitro cytotoxic effect on cultured L929 cells (MTT assay); assay type: cell-based; settings: mouse
Description: (§1) Cultures of L929 (Fibroblast cells) were maintained in Dulbecco's modified eagles media supplemented with 10% fetal bovine serum (FBS) and grown to confluence at 37° C. and 5% CO2 in a humidified atmosphere using a CO2 incubator. The cells were trypsinised (500 μL of 0.025% Trypsin in PBS/0.5 mM Ethylene diamine tetraacetic acid (EDTA) solution for 2 minutes and passed to T flasks under complete aseptic conditions. Test compounds were added to grown cells at a final concentration of 6.25, 12.5, 25, 50 and 100 μg/mL from a stock of 1 mg/mL and incubated for 24 hours. The percentage difference in viability was determined by standard MTT assay after 24 hours of incubation. The MTT assay is a colorimetric assay for assessing cell metabolic activity. NAD (P) H-dependent cellular oxidoreductase enzymes under defined conditions, reflect the number of viable cells present.
(§2) Viability percentage was calculated using the Formula, % viability=(OD of Test/OD of control)×100, • where control OD was 0.993.

[6] = system: L929 (Fibroblast cells); experiment: as above; assay type: cell-based; settings: MTT, 24 hours
Description: as §1, §2

FAS prepared from Saccharomyces cerevisiae, sequence (P07149 whole entry): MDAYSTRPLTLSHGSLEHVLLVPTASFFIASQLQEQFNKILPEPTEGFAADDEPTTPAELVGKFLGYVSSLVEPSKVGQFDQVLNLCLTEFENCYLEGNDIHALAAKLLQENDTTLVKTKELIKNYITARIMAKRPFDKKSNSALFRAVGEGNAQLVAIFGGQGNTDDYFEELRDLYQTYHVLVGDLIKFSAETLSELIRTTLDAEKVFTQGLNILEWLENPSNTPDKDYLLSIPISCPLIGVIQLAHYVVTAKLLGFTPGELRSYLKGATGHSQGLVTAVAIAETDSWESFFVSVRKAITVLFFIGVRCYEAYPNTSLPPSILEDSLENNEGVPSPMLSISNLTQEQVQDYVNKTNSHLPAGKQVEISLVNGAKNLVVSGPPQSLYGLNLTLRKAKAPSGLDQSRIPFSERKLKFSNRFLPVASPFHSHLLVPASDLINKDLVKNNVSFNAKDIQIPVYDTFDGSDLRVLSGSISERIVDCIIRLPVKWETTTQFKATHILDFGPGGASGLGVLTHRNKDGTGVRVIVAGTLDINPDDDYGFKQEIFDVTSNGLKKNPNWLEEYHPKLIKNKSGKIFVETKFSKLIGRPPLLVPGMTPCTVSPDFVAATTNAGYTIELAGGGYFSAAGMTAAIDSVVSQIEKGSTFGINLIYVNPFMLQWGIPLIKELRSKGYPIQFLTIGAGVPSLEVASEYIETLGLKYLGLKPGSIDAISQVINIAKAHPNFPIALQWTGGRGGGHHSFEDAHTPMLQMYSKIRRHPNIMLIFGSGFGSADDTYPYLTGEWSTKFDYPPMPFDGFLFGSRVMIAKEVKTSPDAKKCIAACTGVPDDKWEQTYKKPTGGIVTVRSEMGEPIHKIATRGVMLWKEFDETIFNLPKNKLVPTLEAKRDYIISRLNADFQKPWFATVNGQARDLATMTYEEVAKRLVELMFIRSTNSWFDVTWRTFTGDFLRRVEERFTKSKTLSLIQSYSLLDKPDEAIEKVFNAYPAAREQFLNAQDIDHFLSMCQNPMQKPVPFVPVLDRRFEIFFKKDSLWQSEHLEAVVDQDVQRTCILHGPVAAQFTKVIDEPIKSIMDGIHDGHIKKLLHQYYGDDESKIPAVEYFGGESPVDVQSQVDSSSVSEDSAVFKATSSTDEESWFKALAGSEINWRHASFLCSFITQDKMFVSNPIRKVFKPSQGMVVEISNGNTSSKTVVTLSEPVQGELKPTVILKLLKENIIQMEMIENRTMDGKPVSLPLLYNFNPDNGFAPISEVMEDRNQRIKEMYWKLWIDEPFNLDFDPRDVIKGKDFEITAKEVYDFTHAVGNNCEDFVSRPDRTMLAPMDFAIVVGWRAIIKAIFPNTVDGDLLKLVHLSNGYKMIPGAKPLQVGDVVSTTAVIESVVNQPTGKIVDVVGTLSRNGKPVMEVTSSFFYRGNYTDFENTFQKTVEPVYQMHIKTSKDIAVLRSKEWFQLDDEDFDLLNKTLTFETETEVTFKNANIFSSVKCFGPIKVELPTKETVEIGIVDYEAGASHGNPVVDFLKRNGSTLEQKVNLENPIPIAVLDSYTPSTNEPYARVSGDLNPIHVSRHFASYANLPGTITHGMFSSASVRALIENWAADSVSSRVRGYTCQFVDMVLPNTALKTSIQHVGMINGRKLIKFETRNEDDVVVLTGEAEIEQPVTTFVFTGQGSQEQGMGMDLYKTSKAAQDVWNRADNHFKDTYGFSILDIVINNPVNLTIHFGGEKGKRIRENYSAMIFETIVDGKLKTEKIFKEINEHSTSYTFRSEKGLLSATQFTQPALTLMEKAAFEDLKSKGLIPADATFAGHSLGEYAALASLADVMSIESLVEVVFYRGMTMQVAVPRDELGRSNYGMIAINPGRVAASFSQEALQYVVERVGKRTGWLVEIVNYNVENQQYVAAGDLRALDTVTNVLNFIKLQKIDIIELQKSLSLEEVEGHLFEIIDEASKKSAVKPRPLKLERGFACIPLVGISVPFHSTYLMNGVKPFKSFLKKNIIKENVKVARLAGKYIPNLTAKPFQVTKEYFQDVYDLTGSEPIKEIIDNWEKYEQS
FAS prepared from Saccharomyces cerevisiae, sequence (P19097 whole entry): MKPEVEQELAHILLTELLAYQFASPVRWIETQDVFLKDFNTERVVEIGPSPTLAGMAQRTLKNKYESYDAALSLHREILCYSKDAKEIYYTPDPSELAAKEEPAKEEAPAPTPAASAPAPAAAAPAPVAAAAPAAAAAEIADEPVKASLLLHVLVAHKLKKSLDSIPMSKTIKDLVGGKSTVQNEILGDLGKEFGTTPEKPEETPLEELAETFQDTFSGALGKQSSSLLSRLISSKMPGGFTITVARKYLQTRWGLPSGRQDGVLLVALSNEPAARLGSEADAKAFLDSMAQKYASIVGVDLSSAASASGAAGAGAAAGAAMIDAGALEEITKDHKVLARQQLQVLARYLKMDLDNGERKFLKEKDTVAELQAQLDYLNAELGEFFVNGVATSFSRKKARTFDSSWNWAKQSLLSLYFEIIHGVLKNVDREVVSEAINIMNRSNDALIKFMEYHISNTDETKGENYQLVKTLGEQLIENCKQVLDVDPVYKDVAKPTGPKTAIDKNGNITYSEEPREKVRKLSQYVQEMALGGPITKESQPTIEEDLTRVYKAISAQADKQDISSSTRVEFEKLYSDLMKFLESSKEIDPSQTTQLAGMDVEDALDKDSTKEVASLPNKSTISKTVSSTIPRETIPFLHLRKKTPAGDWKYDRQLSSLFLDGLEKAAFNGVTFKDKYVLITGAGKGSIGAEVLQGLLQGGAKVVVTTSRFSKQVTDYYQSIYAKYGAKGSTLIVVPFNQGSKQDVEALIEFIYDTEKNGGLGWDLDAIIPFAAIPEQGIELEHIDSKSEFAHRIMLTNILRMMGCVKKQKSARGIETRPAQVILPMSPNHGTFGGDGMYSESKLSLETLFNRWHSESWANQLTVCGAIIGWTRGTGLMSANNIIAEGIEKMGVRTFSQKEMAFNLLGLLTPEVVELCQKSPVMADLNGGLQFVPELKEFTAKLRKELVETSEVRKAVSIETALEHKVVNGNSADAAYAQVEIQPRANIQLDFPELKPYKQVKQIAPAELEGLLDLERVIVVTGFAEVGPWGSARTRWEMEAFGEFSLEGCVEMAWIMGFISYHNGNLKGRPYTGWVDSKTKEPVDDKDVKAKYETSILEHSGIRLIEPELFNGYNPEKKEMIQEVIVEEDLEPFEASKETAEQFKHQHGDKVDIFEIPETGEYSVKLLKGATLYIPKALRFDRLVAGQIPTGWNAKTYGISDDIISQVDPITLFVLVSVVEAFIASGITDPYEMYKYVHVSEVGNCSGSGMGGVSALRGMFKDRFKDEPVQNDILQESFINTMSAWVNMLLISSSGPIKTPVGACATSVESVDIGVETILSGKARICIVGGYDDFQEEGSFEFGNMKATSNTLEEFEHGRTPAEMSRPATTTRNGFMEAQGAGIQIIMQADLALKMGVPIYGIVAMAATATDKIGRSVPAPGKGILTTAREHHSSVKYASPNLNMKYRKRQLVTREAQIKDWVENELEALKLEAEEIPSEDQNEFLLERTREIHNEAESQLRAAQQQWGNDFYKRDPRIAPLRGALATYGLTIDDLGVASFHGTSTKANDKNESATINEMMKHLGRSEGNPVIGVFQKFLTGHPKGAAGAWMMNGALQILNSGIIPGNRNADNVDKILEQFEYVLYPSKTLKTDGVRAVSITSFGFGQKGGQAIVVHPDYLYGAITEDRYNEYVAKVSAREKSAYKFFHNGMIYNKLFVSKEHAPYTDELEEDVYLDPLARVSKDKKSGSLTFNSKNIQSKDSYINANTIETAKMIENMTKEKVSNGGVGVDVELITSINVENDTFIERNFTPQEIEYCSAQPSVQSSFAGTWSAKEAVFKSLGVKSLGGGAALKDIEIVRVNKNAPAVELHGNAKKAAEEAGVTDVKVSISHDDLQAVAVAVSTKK

Row | Structure (SMILES) | IC50 [2] [µg/mL] | viability at 6.25 µg/mL ([2]; A549, 6.25 μg/mL) [%] | viability at 12.5 µg/mL ([2]; A549, 12.5 μg/mL) [%] | viability at 25 µg/mL ([2]; A549, 25 μg/mL) [%] | viability at 50 µg/mL ([2]; A549, 50 μg/mL) [%] | viability at 100 µg/mL ([2]; A549, 100 μg/mL) [%] | Inhibition compared to control [3] [%] | Average ΔC (change in concentration of NADPH) [3] | Inhibition compared to control [4] [%] | Average ΔC (change in concentration of NADPH) [4] | IC50 anti-proliferative activity against A549 cells [2] [µg/mL] | further results
1 | O=Cc1cc(-c2coc3cc(O)cc(O)c3c2=O)ccc1O [3′-Formylgenistein] |  |  |  |  |  |  |  |  |  |  |  | IC50 ([1]; read-out: IC50 against FAS (converted)): 7.71 µM
2 | C[C@@H]1O[C@@H](Oc2cc3c(=O)oc4c(O)c(O)cc5c(=O)oc(c2O)c3c45)[C@H](O)[C@H](O)[C@H]1O [ellagic acid 4-O-alpha-1-rhamnopyranoside] |  |  |  |  |  |  |  |  |  |  |  | IC50 against FAS [1]: 7.5 microgram/mL
3 | C/C=C/C/C=C/CCC(=O)[C@H]1O[C@H]1C(N)=O [Cerulenin] | 86.4 (≈ 387 µM) | 100 | 96.9 | 72 | 62.2 | 48.1 | 21.48 | 0.03955 | 36.49 | 0.03248 |  | 
4 | CC(C)[C@H](O)C(=O)/C(O)=C/[C@@H](N)/C=C\CCCC[C@H]1C=C[C@@H](O)C=C1 [Compound of Formula II, (3S,5Z,7S,8Z)-7-amino-3,5-dihydroxy-2-methyl-13-[(1s,4s)-4-hydroxycyclohexa-2,5-dien-1-yl]trideca-5,8-dien-4-one] | 74 to 78 | 92.3 | 89.7 | 67.4 | 55.7 | 42.6 | 30.54 | 0.03498 | 41.49 | 0.03006 | 76.034 | viability at 24 h, 6.25 μg/mL [5]: 90.8%; viability at 24 h, 12.5 μg/mL [5]: 85.8%; viability at 24 h, 25 μg/mL [5]: 74.7%; viability at 24 h, 50 μg/mL [5]: 64.3%; viability at 24 h, 100 μg/mL [5]: 55.8%; LD50 against L929 cell lines [6]: about 89.65 μg/mL
5 | C=C1C(=O)OC(CCCCCCCC)C1C(=O)O (stereo not drawn) [C75] |  |  |  |  |  |  | 15.67 | 0.04248 | 29.60 | 0.03612 | 99.034 (≈ 389 µM) | Percentage Viability ([2]; A549, 6.25 μg/mL): 100.0%; Percentage Viability ([2]; A549, 12.5 μg/mL): 100.0%; Percentage Viability ([2]; A549, 25 μg/mL): 80.110%; Percentage Viability ([2]; A549, 50 μg/mL): 66.483%; Percentage Viability ([2]; A549, 100 μg/mL): 55.985%
